This note sets out measurements from US11919898B2, “Crystal form of azaindole derivative and use thereof” (Wuxi Life Fountain Biotech Co., Ltd, priority 2020, dated 2024).

The nature of data set [1]: Hygroscopicity test by dynamic vapor sorption (DVS). In kind it is physicochemical. To be noted: for ΔW, hygroscopic weight gain: 25° C. and 80% RH, DVS; for Classification of hygroscopicity: 25° C./80% RH. As for the experimental part:
Dynamic Vapor Sorption (DVS) of the Present Invention • Instrument model: SMS DVS Intrinsic Dynamic Vapor Sorption Analyzer • Test method: A sample (10-30 mg) is tested in a DVS sample pan. Detailed DVS Parameters: • Temperature: 25° C. • Equilibration: dm/dt=0.002%/min (Minimum: 10 min, Maximum: 180 min) • RH (%) test interval: 10 (0-90%), 5 (90-95%) • RH (%) test interval range: 0-95-0 Hygroscopicity evaluations are classified as follows: [table] Note: AW % represents the hygroscopic weight gain of the test product at 25° C./80% RH. Experimental Method: • 10-30 mg of the crystal form A of the compound of Formula (II) was placed in the DVS sample pan and tested. Experimental Method: • 10-30 mg of the crystal form G of the compound of Formula (III) was placed in the DVS sample pan and tested. Experimental Method: • 10-30 mg of the crystal form J of the compound of Formula (IV) was placed in the DVS sample pan and tested.

Data set [2] can be described thus: Stability comparison of crystal form A and crystal form B (slurry in ethanol, XRPD). In kind it is physicochemical. To be noted: stirred in ethanol for 16 hrs. An excerpt: 35 g of the crystal form B of the compound of Formula (II) was weighed, added to ethanol, and stirred for 16 hrs.

Where “and” joins values, the source holds several entries; their conditions need not be identical. Equal entries are not always repeated.

As to `COc1cc(OC)c(F)c(Cc2c[nH]c3ncc(-c4cnn(CCO)c4)cc23)c1F.Cc1ccc(S(=O)(=O)O)cc1`, in data set [1], the “ΔW, hygroscopic weight gain” value is 6.077% and the Classification of hygroscopicity result was “hygroscopic”.

Turning to `COc1cc(OC)c(F)c(Cc2c[nH]c3ncc(-c4cnn(CCO)c4)cc23)c1F.Cl`, in data set [2], the “Crystal form conversion (XRPD)” value is “can be converted into the crystal form A of the compound of Formula (II)”.

For the molecule `COc1cc(OC)c(F)c(Cc2c[nH]c3ncc(-c4cnn(CCO)c4)cc23)c1F`, in data set [1], the “ΔW, hygroscopic weight gain” value is 3.829% and 3.928%; the Classification of hygroscopicity entry was “hygroscopic”.
